# Measured values from patent publication US12569506B2, “Methods of treating osteonecrosis with LLP2A-bisphosphonate compounds” (The Regents of the University of California, priority 2016, dated 2026).
# Read-outs that look alike come from different tables or passages of the source.
# System: dexamethasone-treated mice
# Format: in vivo, BALB/c mice
# Settings: for Samples with three or more osteonecrosis characteristics (number/total) / Samples with three or more osteonecrosis characteristics (percent): day 90
# Protocol: FIG. 7. Prevalence of osteonecrosis in dexamethasone-treated mice. Mice were treated for 90 days with dexamethasone (Dex), 4 mg/l in drinking water or placebo (PL) (fresh water). At day 30, the Dex-treated mice were re-randomized to Dex alone, Dex+250 μg/kg LLP2A-Ale, Dex+500 μg/kg LLP2A-Ale, and Dex+750 μg/kg LLP2A-Ale. The LLP2A-Ale treatments were given on days 30, 45, 60, and 75. All mice were euthanized at day 90. Right and left distal femurs were fixed in 10% neutral buffer formalin and decalcified. The specimens were dehydrated, embedded in paraffin, cut into 5 micron sections and H&E stained. The sections were evaluated for osteonecrosis by bright light microscopy using modified criteria reported by Yang et al., J. Orthop. Res., 27:169-75 (2009)), which defines osteonecrosis by the presence of the five following characteristics: (1) empty lacunae, (2) pyknotic osteocyte nuclei in areas of empty lacunae and necrosis of adjacent bone marrow, (3) presence of excessive fat cells in the bone marrow, (4) cartilage degradation, and (5) presence of fibrin thrombi in the blood vessels. Each GC-treated group and placebo group were assessed for all five osteonecrosis characteristics or the presence of at least three of the five osteonecrosis characteristics described above.
# The efficacy of LLP2A-Ale was evaluated over a 90 day study using a mouse model of glucocorticoid-induced osteonecrosis. Seven week-old male mice (BALB/c (n=80, Jackson laboratories, USA) were housed in a sanitary ventilated animal room maintained at 20° C. with a 12-hour light/dark cycle. All animals were handled according to the USDA animal care guidelines with the approval of the UC Davis Committee on Animal Research. The mice were given water and standard commercial rodent chow (22/5 Rodent Diet; Teklad, Madison, WI) ad libitum. The animals were weight randomized to either a placebo group (fresh water) or glucocorticoid only (4 mg/L dexamethasone (Dex) in drinking water) and treated for 90 days. At day 30, the Dex-treated mice were then re-randomized to Dex alone, Dex+250 μg/kg LLP2A-Ale, Dex+500 μg/kg LLP2A-Ale and Dex+750 μg/kg LLP2A-Ale. The LLP2A-Ale treatments were given on days 30, 45, 60 and 75. Additionally, 0.1 mg/kg methotrexate was administered twice weekly by subcutaneous injection from day 1-42 in all groups receiving glucocorticoid.
# All the mice were euthanized at day 90. The body weights of all the study animals were assessed each week. If the study animals had 10% loss of body weight compared to the previous week, the dose of dexamethasone was reduced to 2 mg/L, until weight gain was observed. All of the animals were injected with calcein (30 mg/kg) and alizarin red (20 mg/kg) at 7 and 2 days before euthanization.
# Both the right and left distal femurs were fixed in 10% neutral buffered formalin and were shaken for 3 days, then decalcified in 5% EDTA until the bones were fully decalcified. The specimens were then processed in ascending concentrations of ethanol and embedded in paraffin. Tissue sections were cut into 5 microns sections, stained with hematoxylin and eosin and evaluated for the presence of osteonecrosis by bright field microscopy at 20× magnification. Experimental methods are also described in Mohan et al., Calif Tissue Int (2016) doi:10.1007/s00223-016-0195-6, which is incorporated herein by reference in its entirety for all purposes. Osteonecrosis was detected using modified criteria reported by Yang el al., (a mouse model for glucocorticoid-induced osteonecrosis: Effect of a steroid holiday. J Orthop Res. 2009; 27:169-75) which defines osteonecrosis as requiring all of the following changes: (1) empty lacunae, (2) pyknotic osteocyte nuclei in areas of empty lacunae and necrosis of adjacent bone marrow, (3) presence of excessive fat cells in the bone marrow, (4) cartilage degradation and (5) presence of fibrin thrombi in the blood vessels. […]
# [1] = Dex + LLP2A-Ale 250 μg/kg on days 30, 45, 60, 75
# [2] = Dex + LLP2A-Ale 500 μg/kg on days 30, 45, 60, 75
# [3] = LLP2A-Ale 750 μg/kg on days 30, 45, 60, 75
smiles,measurement,setting,value
Cc1ccccc1NC(=O)Nc1ccc(CC(=O)N[C@@H](CCCCNC(=O)/C=C/c2cccnc2)C(=O)N[C@@H](CCCC(=O)O)C(=O)NC2(C(=O)NCCOCCOCCNC(=O)CCC(=O)NCCOCCOCCNC(=O)CCC(=O)N[C@@H](CCCCNC(=O)[C@H](N)CSC3CC(=O)N(CC4CCC(C(=O)NCCCC(O)(P(=O)(O)O)P(=O)(O)O)CC4)C3=O)C(N)=O)CCCCC2)cc1 (stereo partly shown) [LLP2A-Ale],Samples with three or more osteonecrosis characteristics (number/total),[1],12/16
same,Samples with three or more osteonecrosis characteristics (percent),[1],75%
same,Samples with three or more osteonecrosis characteristics (number/total),[2],9/16
same,Samples with three or more osteonecrosis characteristics (percent),[2],56%
same,Number of mice per group showing all five (or at least three) osteonecrosis characteristics,"Dex alone vs Dex+LLP2A-Ale groups, day 90 (FIG. 7)",decreased
same,Samples with three or more osteonecrosis characteristics (number/total),[3],11/16
same,Samples with three or more osteonecrosis characteristics (percent),[3],69%
